Legend:
[1] = tested on: ECHCG; assay: Post-emergence herbicidal action against ECHCG; format: in vivo, Echinochloa crus-galli
In short: (§1)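 Post-emergence greenhouse test; one-leaf stage, 2–3 wk post-sowing, sandy loam. Foliar spray of WP/EC in water, 600–800 l/ha, +0.2% wetting agent. Visual % action at ~3 wk vs untreated (100% = plants dead).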

[2] = tested on: SETVI; assay: Pre-emergence herbicidal action against SETVI; format: in vivo, Setaria viridis; conditions: dosage 80 g/ha
In short: (§2)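 Herbicidal effect was assessed 3 weeks after treatment by visual comparison with untreated controls, 100% denoting dead plants. Aqueous WP or EC preparations had been applied at 600 to 800 l/ha with 0.2% wetting agent to the soil covering freshly sown seeds.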

[3] = tested on: MATIN; assay: Pre-emergence herbicidal action against MATIN; format: in vivo, Matricaria inodora
In short: as §2

[4] = tested on: PHBPU; assay: Pre-emergence herbicidal action against PHBPU; format: in vivo, Pharbitis purpurea; conditions: dosage 80 g/ha
Text: Seeds of monocotyledonous and dicotyledonous weed plants and crop plants are laid out in sandy loam soil in wood-fiber pots and covered with soil. The compounds of the invention, formulated in the form of wettable powders (WP) or as emulsion concentrates (EC), are then applied to the surface of the covering soil in the form of an aqueous suspension or emulsion at a water application rate equivalent to 600 to 800 l/ha, with addition of 0.2% wetting agent. After the treatment, the pots are placed in a greenhouse and kept under good growth conditions for the trial plants. The damage to the test plants is scored visually after a test period of 3 weeks by comparison with untreated controls (herbicidal activity in percent (%): 100% activity=the plants have died, 0% activity=like control plants). […] The tables below illustrate, in an illustrative manner, the post-emergence herbicidal action of the compounds of the invention, the herbicidal activity being stated in percent.

[5] = tested on: AMARE; assay: Pre-emergence herbicidal action against AMARE; format: in vivo, Amaranthus retroflexus
In short: as §2

[6] = tested on: PHBPU; assay: Post-emergence herbicidal action against PHBPU; format: in vivo, Pharbitis purpurea; conditions: dosage 20 g/ha
In short: as §1

[7] = tested on: AMARE; assay: Post-emergence herbicidal action against AMARE; format: in vivo, Amaranthus retroflexus; conditions: 20 g/ha, visual assessment about 3 weeks after treatment, 100% = plants have died, 0% = like control plants
In short: as §1

[8] = tested on: ALOMY; assay: Post-emergence herbicidal action against ALOMY; format: in vivo, Alopecurus myosuroides; conditions: dosage 20 g/ha, visual assessment about 3 weeks after treatment vs untreated controls
In short: as §1

[9] = tested on: ECHCG; assay: Pre-emergence herbicidal action against ECHCG; format: in vivo, Echinochloa crus-galli; conditions: 80 g/ha
In short: as §2

[10] = tested on: AVEFA; assay: Pre-emergence herbicidal action against AVEFA; format: in vivo, Avena fatua; conditions: 80 g/ha, pre-emergence
In short: as §2

[11] = tested on: DIGSA; assay: Pre-emergence herbicidal action against DIGSA; format: in vivo, Digitaria sanguinalis
In short: as §2

[12] = tested on: ABUTH; assay: Pre-emergence herbicidal action against ABUTH; format: in vivo, Abutilon theophrasti
In short: as §2

[13] = tested on: DIGSA; assay: Post-emergence herbicidal action against DIGSA; format: in vivo, Digitaria sanguinalis; conditions: for Post-emergence action against DIGSA in %: 5 g/ha; for Post-emergence action against DIGSA: 20 g/ha
In short: as §1

[14] = tested on: MATIN; assay: Post-emergence herbicidal action against MATIN; format: in vivo, Matricaria inodora; conditions: dosage 20 g/ha
In short: as §1

[15] = tested on: VIOTR; assay: Pre-emergence herbicidal action against VIOTR; format: in vivo, Viola tricolor
In short: as §2

[16] = tested on: ALOMY; assay: Pre-emergence herbicidal action against ALOMY; format: in vivo, Alopecurus myosuroides; conditions: pre-emergence
In short: as §2

[17] = tested on: VIOTR; assay: Post-emergence herbicidal action against VIOTR; format: in vivo, Viola tricolor; conditions: 20 g/ha
In short: as §1

[18] = tested on: VERPE; assay: Pre-emergence herbicidal action against VERPE; format: in vivo, Veronica persica; conditions: dosage 80 g/ha
In short: as §2

[19] = tested on: VERPE; assay: Post-emergence herbicidal action against VERPE; format: in vivo, Veronica persica; conditions: 20 g/ha
In short: as §1

[20] = 20 g/ha, scored visually after 3 weeks vs untreated controls, 100% = plants have died, 0% = like control plants
[21] = 80 g/ha, scored visually after 3 weeks vs untreated controls (100% = plants have died, 0% = like control plants)
[22] = dosage 20 g/ha, scored visually after 3 weeks vs untreated controls, 100% = plants have died, 0% = like control plants

Compound | Post-emergence action against ECHCG in % ([1]; dosage 20 g/ha) [%] | Pre-emergence action against SETVI in % [2] [%] | Pre-emergence action against MATIN in % ([3]; dosage 20 g/ha) [%] | Pre-emergence action against MATIN in % ([3]; dosage 80 g/ha) [%] | Pre-emergence action against PHBPU in % [4] [%] | Pre-emergence action against AMARE in % [5, 20] [%] | Pre-emergence action against AMARE in % [5, 21] [%] | Post-emergence action against PHBPU in % [6] [%] | Post-emergence action at 20 g/ha against AMARE in % [7] [%] | Pre-emergence action against ECHCG in % [9] [%] | Pre-emergence action against DIGSA in % ([11]; dosage 20 g/ha) [%] | Pre-emergence action against DIGSA in % ([11]; dosage 80 g/ha) [%] | Pre-emergence action against ABUTH (herbicidal activity) [12, 21] [%] | Pre-emergence action against ABUTH (herbicidal activity in percent) [12, 22] [%] | Post-emergence action against DIGSA in % [13] [%] | Post-emergence action against DIGSA [13] [%] | Post-emergence action against MATIN in % [14] [%] | Pre-emergence action against VIOTR in % ([15]; dosage 20 g/ha) [%] | Pre-emergence action against VIOTR in % ([15]; dosage 80 g/ha) [%] | Post-emergence action against VIOTR in % [17] [%] | also measured
CCn1nnnc1NC(=O)c1ccc(C(F)F)c(C(=O)NCC2CC2)c1Br [Example 2-228] | 90 | 90 | 90 | 100 | 100 | 100 | 100 | 80 | 90 | 100 | 100 | 100 | 100 | 100 | 80 | 80 | 80 | 100 | 100 | 80 | Post-emergence action against ECHCG in % ([1]; dosage 5 g/ha): 80%; Post-emergence action against ALOMY in % [8]: 80%; Pre-emergence action against AVEFA in % [10]: 80%; Pre-emergence action against ALOMY (herbicidal activity) [16, 21]: 80%; Pre-emergence action against VERPE in % [18]: 90%
CCn1nnnc1NC(=O)c1ccc(C(F)F)c(C(=O)NC(C)C2CC2)c1Br (centres unmarked) [Example 2-340] | 90 | 100 | 100 | 100 | 80 | 100 | 100 | 80 | 100 | 100 | 100 | 100 | 100 | 100 | 80 | 90 | 80 | 100 | 100 | 80 | Post-emergence action against VERPE in % [19]: 90%; Pre-emergence action against VERPE in % [18]: 100%
Cc1nnc(NC(=O)c2ccc(C(F)(F)F)c(C(=O)NCC(F)(F)F)c2Cl)o1 [Example 6-120] |  |  |  |  |  |  |  |  |  |  |  |  |  |  |  |  |  |  |  |  | pest or weed control at 20 g/ha ([1]; Echinochloa crus-galli, 504 h, dosage 20 g/ha): 90%; pest or weed control at 80 g/ha ([2]; Setaria viridis, 504 h): 100%; pest or weed control at 20 g/ha ([3]; Tripleurospermum inodorum, 504 h, dosage 20 g/ha): 90%; pest or weed control at 80 g/ha ([3]; Tripleurospermum inodorum, 504 h, dosage 80 g/ha): 90%; pest or weed control at 80 g/ha ([4]; Ipomoea purpurea, 504 h): 80%; pest or weed control at 20 g/ha ([5]; Amaranthus retroflexus, 504 h, 20 g/ha, scored visually after 3 weeks vs untreated controls, 100% = plants have died, 0% = like control plants): 100%; pest or weed control at 80 g/ha ([5]; Amaranthus retroflexus, 504 h, 80 g/ha, scored visually after 3 weeks vs untreated controls, 100% = plants have died, 0% = like control plants): 100%; pest or weed control at 20 g/ha ([6]; Ipomoea purpurea, 504 h): 90%; pest or weed control at 20 g/ha ([7]; Amaranthus retroflexus, 504 h): 90%; pest or weed control at 80 g/ha ([9]; Echinochloa crus-galli, 504 h): 100%; pest or weed control at 80 g/ha ([10]; Avena fatua, 504 h): 90%; pest or weed control at 80 g/ha ([11]; Digitaria sanguinalis, 504 h, dosage 80 g/ha): 90%; pest or weed control at 80 g/ha ([12]; Abutilon theophrasti, 504 h, 80 g/ha, scored visually after 3 weeks vs untreated controls (100% = plants have died, 0% = like control plants)): 100%; pest or weed control at 20 g/ha ([12]; Abutilon theophrasti, 504 h, dosage 20 g/ha, scored visually after 3 weeks vs untreated controls, 100% = plants have died, 0% = like control plants, read-out: Pre-emergence action against ABUTH (herbicidal activity in percent)): 80%; pest or weed control at 20 g/ha ([19]; Veronica persica, 504 h): 80%; pest or weed control at 80 g/ha ([15]; Viola tricolor, 504 h, dosage 80 g/ha): 90%; pest or weed control at 80 g/ha ([16]; Alopecurus myosuroides, 504 h, 80 g/ha, scored visually after 3 weeks vs untreated controls (100% = plants have died, 0% = like control plants)): 90%; pest or weed control at 20 g/ha ([16]; Alopecurus myosuroides, 504 h, 20 g/ha, scored visually after 3 weeks, 100% = plants have died, 0% = like control plants): 80%
